Experimental data taken from ChEMBL document CHEMBL1201862, “PubChem BioAssay data set” (2004).
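Exposure lasted 48 hours, with cells grown in 96-well plates and compounds tested at five concentrations. The concentration for 50% growth inhibition is given as GI50.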 The source made the active and inactive calls. Rule as the data show it: active = GI50 up to about 1.1 µM and inactive = higher.

Key:
Assay in all cases: inhibition of tumour cell growth, NCI panel, 48 h
786-0 = test system: 786-0
A498 = test system: A498
ACHN = test system: ACHN
BT-549 = test system: BT-549
HCT-15 = test system: HCT-15
Hs-578T = test system: Hs-578T
IGROV-1 = test system: IGROV-1
M14 = test system: M14
MDA-MB-231 = test system: MDA-MB-231
MDA-MB-435 = test system: MDA-MB-435
MOLT-4 = test system: MOLT-4
Malme-3M = test system: Malme-3M
NCI-H460 = test system: NCI-H460
NCI-H522 = test system: NCI-H522
RXF 393 = test system: RXF 393
SK-MEL-5 = test system: SK-MEL-5
SNB-19 = test system: SNB-19
T47D = test system: T47D
UACC-257 = test system: UACC-257

SMILES | GI50 (786-0) | GI50 (A498) | GI50 (ACHN) | GI50 (BT-549) | GI50 (HCT-15) | GI50 (Hs-578T) | GI50 (IGROV-1) | GI50 (M14) | GI50 (MDA-MB-231) | GI50 (MDA-MB-435) | GI50 (MOLT-4) | GI50 (Malme-3M) | GI50 (NCI-H460) | GI50 (NCI-H522) | GI50 (RXF 393) | GI50 (SK-MEL-5) | GI50 (SNB-19) | GI50 (T47D) | GI50 (UACC-257)
COc1ccc2c(C(=O)c3c(C)n(CCN4CCOCC4)c4ccccc34)cccc2c1 | 27.7 µM (inactive) | 81.8 µM (inactive) | 37.5 µM (inactive) | 20.2 µM (inactive) | 21.3 µM | 10.8 µM (inactive) | 36.6 µM (inactive) | 22.3 µM (inactive) | 22.6 µM (inactive) | 5.6 µM (inactive) | 19.4 µM (inactive) | 17.5 µM (inactive) | 29 µM (inactive) | 18.7 µM (inactive) | 22.1 µM (inactive) | 17.5 µM (inactive) | 46.1 µM (inactive) | 17.4 µM (inactive) | 20.3 µM (inactive)
Cc1cc(Cl)nc2ccc(Cc3ccc4nc(Cl)cc(C)c4c3)cc12 | 12.2 µM (inactive) | 21 µM (inactive) | 16 µM (inactive) | 42.2 µM (inactive) | 49.3 µM | 36.3 µM (inactive) | 31.7 µM (inactive) | 85.3 µM (inactive) | 17.1 µM (inactive) | 65.2 µM (inactive) | > 100 µM (inactive) | 21.8 µM (inactive) | 41.5 µM (inactive) | 24.2 µM (inactive) | 11 µM (inactive) | 23.8 µM (inactive) | 32.4 µM (inactive) | 6.25 µM (inactive) | 27 µM (inactive)
C/C(=C/CC[C@](C)(OC1OC(CO)C(O)C(O)C1OC1OC(C)C(O)C(O)C1O)[C@H]1CC[C@]2(C)[C@@H]1CC[C@@H]1[C@@]3(C)CC[C@H](O)C(C)(C)[C@@H]3C[C@H](O)[C@]12C)CO (some centres undefined) | > 100 µM (inactive) | > 100 µM (inactive) | > 100 µM (inactive) | > 100 µM (inactive) | > 10 µM | > 100 µM (inactive) | > 100 µM (inactive) | > 100 µM (inactive) | > 100 µM (inactive) | > 100 µM (inactive) | > 100 µM (inactive) | > 100 µM (inactive) | > 100 µM (inactive) | > 100 µM (inactive) | > 100 µM (inactive) | > 100 µM (inactive) | > 100 µM (inactive) | > 100 µM (inactive) | > 100 µM (inactive)
Nc1nc(Cl)cc(NCC2(CO)CCC(O)C2)n1 (centres undefined) | > 100 µM (inactive) | > 100 µM (inactive) | > 100 µM (inactive) | > 100 µM (inactive) | > 100 µM | > 100 µM (inactive) | > 100 µM (inactive) | > 100 µM (inactive) | > 100 µM (inactive) | > 100 µM (inactive) | > 100 µM (inactive) | > 100 µM (inactive) | > 100 µM (inactive) | > 100 µM (inactive) | > 100 µM (inactive) | > 100 µM (inactive) | > 100 µM (inactive) | > 100 µM (inactive) | > 100 µM (inactive)
OCCCCn1cc(Cn2ncc3c(SCc4ccccc4)ncnc32)nn1 | 63.4 µM (inactive) | 43.5 µM (inactive) | 67.6 µM (inactive) | 34.7 µM (inactive) | 28.3 µM | 26 µM (inactive) | 77.6 µM (inactive) | 29.9 µM (inactive) | 75.7 µM (inactive) | 19.9 µM (inactive) | 21.3 µM (inactive) | > 100 µM (inactive) | 41.4 µM (inactive) | 29.2 µM (inactive) | 64.9 µM (inactive) | 21.7 µM (inactive) | 65.5 µM (inactive) | 32.2 µM (inactive) | 49.4 µM (inactive)
CCN1CCC(O)(c2ccc(Oc3ccc(Cl)cc3)cc2)C(C(=O)c2ccc(Oc3ccc(Cl)cc3)cc2)C1 (centres undefined) | 3.55 µM (inactive) | 8.61 µM (inactive) | 14 µM (inactive) | 14.5 µM (inactive) | 7.35 µM | 20.7 µM (inactive) | 8.38 µM (inactive) | 14 µM (inactive) | 14.7 µM (inactive) | 16.4 µM (inactive) | 8.45 µM (inactive) | 17.2 µM (inactive) | 3.76 µM (inactive) | 2.83 µM (inactive) | 26.2 µM (inactive) | 12.2 µM (inactive) | 14.5 µM (inactive) | 14.7 µM (inactive) | 13.3 µM (inactive)
O=CCCCCCOCc1ccccc1 | 23.8 µM (inactive) | > 100 µM (inactive) | 36.9 µM (inactive) | > 100 µM (inactive) | 37.4 µM | > 100 µM (inactive) | 40.7 µM (inactive) | > 100 µM (inactive) | > 87.1 µM (inactive) | > 100 µM (inactive) | 16.9 µM (inactive) | > 67.1 µM (inactive) | 23.3 µM (inactive) | 20.7 µM (inactive) | > 100 µM (inactive) | 25.4 µM (inactive) | > 87.1 µM (inactive) | > 100 µM (inactive) | > 60.8 µM (inactive)
c1ccc(-c2nnc(SCc3c[nH]c4ccccc34)n2-c2ccccc2)cc1 | 31.8 µM (inactive) | 19.3 µM (inactive) | 26.6 µM (inactive) | 17.3 µM (inactive) | 45 µM | 17.4 µM (inactive) | 27.2 µM (inactive) | 78.9 µM (inactive) | 29.4 µM (inactive) | 34.6 µM (inactive) | 8.11 µM (inactive) | > 100 µM (inactive) | 12.1 µM (inactive) | 25.9 µM (inactive) | 16.6 µM (inactive) | 15 µM (inactive) | 42.1 µM (inactive) | 20 µM (inactive) | 23.8 µM (inactive)
CC(N/N=C(\S)N1CCCCCC1)c1cccnn1 (centres undefined) | 0.394 µM (active) | 0.764 µM (active) | 0.294 µM (active) | 0.392 µM (active) | 0.386 µM | 13.2 µM (inactive) | 0.361 µM (active) | 0.319 µM (active) | 0.553 µM (active) | 0.61 µM (active) | 0.111 µM (active) | 0.192 µM (active) | 0.274 µM (active) | 0.2 µM (active) | 0.228 µM (active) | 0.248 µM (active) | 0.381 µM (active) | 0.163 µM (active) | 0.2 µM (active)
N#C/C(=C\Nc1ccccn1)C(=O)C1CC1 | > 100 µM (inactive) | > 100 µM (inactive) | > 100 µM (inactive) | > 100 µM (inactive) | > 100 µM | > 100 µM (inactive) | > 100 µM (inactive) | > 100 µM (inactive) | > 100 µM (inactive) | > 100 µM (inactive) | > 100 µM (inactive) | > 100 µM (inactive) | > 100 µM (inactive) | > 100 µM (inactive) | > 100 µM (inactive) | > 100 µM (inactive) | > 100 µM (inactive) | > 100 µM (inactive) | > 100 µM (inactive)
NC(Cc1ccccc1)P(=O)(O)O (centres undefined) | > 100 µM (inactive) | > 100 µM (inactive) | > 100 µM (inactive) | > 100 µM (inactive) | > 100 µM | > 100 µM (inactive) | > 100 µM (inactive) | > 100 µM (inactive) | > 100 µM (inactive) | > 100 µM (inactive) | > 100 µM (inactive) | > 100 µM (inactive) | > 100 µM (inactive) | > 100 µM (inactive) | > 100 µM (inactive) | > 100 µM (inactive) | > 100 µM (inactive) | > 100 µM (inactive) | > 100 µM (inactive)
